This is an account of results in ChEMBL document CHEMBL3046366, “Inhibitory effect of curcumin analogs on tissue factor procoagulant activity and their preliminary structureactivity relationships” (Med Chem Res, 2013).

pIC50: −log10 of the molar value.

The target in the first experiment is T1, Tissue factor (Homo sapiens, UniProt P13726). Kind of experiment: Inhibition of tissue factor in Homo sapiens (human) THP1-cells using factor 10a chromogenic substrate assessed as inhibition of LPS-iduced procoagulant activity incubated for 1 hr prior to LPS-challenge measured after 5 hr by spectrophotometric analysis. To be noted: thp-1. It counts as cell-based.
T1 sequence (P13726 whole entry): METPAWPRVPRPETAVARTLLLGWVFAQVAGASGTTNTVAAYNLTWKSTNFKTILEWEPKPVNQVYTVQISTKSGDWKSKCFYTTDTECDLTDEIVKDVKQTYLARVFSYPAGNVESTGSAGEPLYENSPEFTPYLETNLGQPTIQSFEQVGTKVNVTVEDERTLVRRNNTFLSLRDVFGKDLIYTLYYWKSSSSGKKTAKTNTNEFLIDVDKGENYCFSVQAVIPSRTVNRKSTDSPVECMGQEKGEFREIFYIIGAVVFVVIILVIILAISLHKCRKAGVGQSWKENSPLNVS
For orientation: pIC50 means −log10 of the IC50, conventionally taken in molar units. `COc1cc(/C=C2\CCC/C(=C\c3ccc(O)c(OC)c3)C2=O)ccc1O` [CYCLOVALONE]: the pIC50 was under 6.70.
With `O=C1/C(=C/c2ccccc2)CCC/C1=C\c1ccccc1` [2,6-DIBENZYLIDENECYCLOHEXANONE], the pIC50 is 9.59.
With `COc1ccc(/C=C/C(=O)/C=C/c2ccc(OC)cc2)cc1`, the pIC50 was 7.87.
For `COc1ccc(/C=C2\CCC/C(=C\c3ccc(OC)cc3)C2=O)cc1`, the pIC50 is under 6.70.
Consider `O=C1/C(=C/c2ccc(O)cc2)CCC/C1=C\c1ccc(O)cc1`, for which the pIC50 was 9.03.
As for `COc1ccc(/C=C/C(=O)c2ccc(OC)cc2)cc1` [4,4'-DIMETHOXYCHALCONE], the pIC50 is 7.81.
For `O=C(/C=C/c1ccc(O)cc1)/C=C/c1ccc(O)cc1`, the negative-log IC50 (pIC50) is 8.59.
Still for that read-out and setting: under `COc1ccc(C(=O)/C=C/c2ccc(O)cc2)cc1` stands 6.85; under `O=C(/C=C/c1ccc(O)cc1)c1ccc(O)cc1` [4,4'-DIHYDROXYCHALCONE], 9.02; under `O=C(/C=C/c1ccccc1)/C=C/c1ccccc1`, 10.28.
In the case of `COc1cc(/C=C/C(=O)/C=C/c2ccc(O)c(OC)c2)ccc1O`, the pIC50 was under 6.70.
On to `O=C(/C=C/c1ccccc1)c1ccc(O)cc1` [4'-HYDROXYCHALCONE], for which the negative logarithm of the IC50 (pIC50) was 9.92.

The next experiment deals with T1, Tissue factor. The experiment is described as follows: Ratio of curcumin IC50 to compound IC50 for tissue factor in LPS-induced Homo sapiens (human) THP1 cells. It counts as cell-based. Particulars: THP-1.
Take `O=C(/C=C/c1ccccc1)/C=C/c1ccccc1`: the Ratio IC50 worked out at 10000.
`O=C(/C=C/c1ccccc1)c1ccc(O)cc1` [4'-HYDROXYCHALCONE]: the Ratio IC50 was 10000.

Target in the next experiment: not listed separately
The experiment is described as follows: Inhibition of tissue factor in Homo sapiens (human) THP1-cells using factor 10a chromogenic substrate assessed as inhibition of LPS-iduced procoagulant activity incubated for 1 hr prior to LPS-challenge measured after 5 hr by spectrophotometric analysis. Particulars: thp-1.
Take `COc1cc(/C=C/C(=O)CC(=O)/C=C/c2ccc(O)c(OC)c2)ccc1O` [CURCUMIN]: the pIC50 is 6.70.
